According to patent US20100204140A1, “USE OF A PEPTIDE AS A THERAPEUTIC AGENT” (priority 2007, published 2010):

Test system: drug-resistant Mycobacterium tuberculosis
Conditions: peptide 10 micrograms per ml, seven days

CSCC[C@H](NC(=O)[C@H](CC(C)C)NC(=O)CNC(=O)[C@@H](NC(=O)[C@H](Cc1ccccc1)NC(=O)[C@H](Cc1ccccc1)NC(=O)[C@H](CC(=O)O)NC(=O)[C@H](Cc1c[nH]cn1)NC(=O)[C@H](CCSC)NC(=O)[C@@H](N)CC(=O)O)C(C)C)C(N)=O [Neurokinin B]
% inhibition: 0.0%
